What was measured:
[1] = tested on: patients with Alzheimer's disease; test: Change in ADAS-cog/11 in combined double-blind, placebo-controlled galantamine clinical trials (5 to 6 months); assay type: in vivo, human; conditions: combined trial data, galantamine 24 mg daily, controls for study and AD severity
Description: The objective was to evaluate the effect of statins on cognitive maintenance in patients with Alzheimer's disease during 5- and 6-month randomized clinical trials of galantamine.
Data were combined from 3 double-blind, placebo-controlled clinical trials limited to patients treated with galantamine 24 mg daily or placebo
Patients were categorized based on galantamine status and any statin use.
Changes in the Alzheimer's Disease Assessment Scale-cognitive subscale with standard 11 items (ADAS-cog/11) using last observation carried forward (LOCF) were assessed
Comparisons between patient subgroups were made controlling for relevant confounding factors.

[2] = tested on: serum β-amyloid; conditions: patients with high low-density lipoprotein cholesterol; lovastatin 40 or 60 mg; cited from earlier work

| SMILES | ADAS-Cog change score, LS Means (SE) ([1]; Intent-to-treat analysis (LOCF)) | ADAS-Cog change score, LS Means (SE) ([1]; Intent-to-treat analysis (LOCF), listed as GAL-only) | ADAS-Cog change score, LS Means (SE) ([1]; Observed cases) | serum β-amyloid [2] |
| --- | --- | --- | --- | --- |
| COc1ccc2c3c1O[C@H]1C[C@@H](O)C=C[C@@]31CCN(C)C2 [GAL 24 only, (4aS,6R,8aS)-4a, 5,9,10,11,12-hexahydro-3-methoxy-1 1-methyl-6H-benzofuro[3a,3,2-ef][2]benzazepin-6-ol] | −0.88 (0.25) | −0.88 | −0.61 (0.28) |  |
| CC[C@H](C)C(=O)O[C@H]1C[C@@H](C)C=C2C=C[C@H](C)[C@H](CC[C@@H]3C[C@@H](O)CC(=O)O3)[C@H]21 [lovastatin] |  |  |  | decreased serum β-amyloid |

Source: patent US20050222122A1, “Statin therapy for enhancing cognitive maintenance” (priority 2002, published 2005)
